Measurements as given in ChEMBL document CHEMBL1201862, “PubChem BioAssay data set” (2004).
The source made the active and inactive calls.

What was measured:
[1] = target: Heat shock protein HSP 90-alpha (Homo sapiens, UniProt P07900); experiment: Luminescence-based dose response biochemical high throughput screening assay for inhibitors of the Heat Shock Protein 90 (HSP90). [Related pubchem assays: 1831 (Summary AID.), 1846 (Confirmation screen.), 1789 (Primary screen.)]
[2] = target: T1, Corticotropin-releasing factor receptor 2/Corticotropin-releasing factor-binding protein (Homo sapiens, UniProt P24387+Q13324); experiment: activators of CRF receptor 2 with binding protein – uHTS hits, confirmation (AID 602473); format: functional; settings: read-out: EC50_Mean
T1 sequence (Q13324 whole entry): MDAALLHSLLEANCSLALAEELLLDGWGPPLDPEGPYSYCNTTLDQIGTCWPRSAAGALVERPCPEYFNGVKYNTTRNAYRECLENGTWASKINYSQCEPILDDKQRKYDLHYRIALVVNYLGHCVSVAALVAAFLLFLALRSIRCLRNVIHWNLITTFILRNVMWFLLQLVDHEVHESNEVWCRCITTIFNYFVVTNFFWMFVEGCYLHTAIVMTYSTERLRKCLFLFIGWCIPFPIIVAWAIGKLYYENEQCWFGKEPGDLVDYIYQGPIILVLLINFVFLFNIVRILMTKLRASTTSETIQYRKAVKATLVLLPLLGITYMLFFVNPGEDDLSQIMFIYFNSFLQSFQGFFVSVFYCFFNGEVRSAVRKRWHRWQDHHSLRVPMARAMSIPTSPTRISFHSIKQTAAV
T1 sequence (P24387 whole entry): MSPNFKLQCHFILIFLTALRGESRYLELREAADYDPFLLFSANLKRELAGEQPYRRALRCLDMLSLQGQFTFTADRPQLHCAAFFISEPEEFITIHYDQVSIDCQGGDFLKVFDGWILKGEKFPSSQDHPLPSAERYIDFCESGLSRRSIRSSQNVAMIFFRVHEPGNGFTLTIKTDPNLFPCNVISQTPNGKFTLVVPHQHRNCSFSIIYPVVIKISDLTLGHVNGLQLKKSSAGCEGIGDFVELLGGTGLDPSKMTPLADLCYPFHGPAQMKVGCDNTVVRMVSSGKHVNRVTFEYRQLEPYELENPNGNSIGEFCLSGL

[3] = target: T2, Mannose-6-phosphate isomerase (Homo sapiens, UniProt P34949); experiment: human PMI inhibitors, high substrate, primary screen, biochemical, fluorescence intensity, high mannose 6-phosphate (AID 1220)
T2 sequence (P34949 whole entry): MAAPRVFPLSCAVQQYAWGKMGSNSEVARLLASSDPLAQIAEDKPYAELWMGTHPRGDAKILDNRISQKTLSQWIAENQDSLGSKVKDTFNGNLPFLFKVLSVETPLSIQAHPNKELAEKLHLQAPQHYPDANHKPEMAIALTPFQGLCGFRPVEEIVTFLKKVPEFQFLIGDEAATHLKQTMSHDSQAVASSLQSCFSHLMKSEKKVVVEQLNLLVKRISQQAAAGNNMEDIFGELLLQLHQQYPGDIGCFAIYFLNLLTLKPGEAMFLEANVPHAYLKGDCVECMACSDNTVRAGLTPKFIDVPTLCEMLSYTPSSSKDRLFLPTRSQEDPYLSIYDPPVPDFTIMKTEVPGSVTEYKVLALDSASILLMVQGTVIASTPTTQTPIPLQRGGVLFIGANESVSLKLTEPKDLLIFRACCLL

[4] = target: DNA dC->dU-editing enzyme APOBEC-3G (Homo sapiens, UniProt Q9HC16); experiment: Dose Response confirmation of small molecule APOBEC3G DNA Deaminase Inhibitors via a fluorescence-based single-stranded DNA deaminase assay. [Related pubchem assays (depositor defined):AID493012, AID493028]; format: functional
[5] = target: Eukaryotic translation initiation factor 4E (Mus musculus, UniProt P63073); experiment: eIF4E–eIF4G protein interaction inhibitors, dose response, biochemical, TR-FRET (AID 855); format: functional;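 further: potency for disrupting eIF4E binding to eIF4GI seen as loss of FRET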
[6] = target: Protein Tat (Human immunodeficiency virus type 1 group M subtype B (isolate HXB2)(HIV-1), UniProt P04608); format: functional;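 further: tat binding to TAR RNA read out by fluorescence polarization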
[7] = target: T3, Protein RecA (Mycobacterium tuberculosis, UniProt P9WHJ3); experiment: Fluorescence Cell-Free Homogeneous Dose Retest to Identify Inhibitors of RecA-Intein Splicing Activity. [Related pubchem assays (depositor defined):AID2097, AID2223, AID489010, AID492950]; format: functional
T3 sequence (P9WHJ3 whole entry): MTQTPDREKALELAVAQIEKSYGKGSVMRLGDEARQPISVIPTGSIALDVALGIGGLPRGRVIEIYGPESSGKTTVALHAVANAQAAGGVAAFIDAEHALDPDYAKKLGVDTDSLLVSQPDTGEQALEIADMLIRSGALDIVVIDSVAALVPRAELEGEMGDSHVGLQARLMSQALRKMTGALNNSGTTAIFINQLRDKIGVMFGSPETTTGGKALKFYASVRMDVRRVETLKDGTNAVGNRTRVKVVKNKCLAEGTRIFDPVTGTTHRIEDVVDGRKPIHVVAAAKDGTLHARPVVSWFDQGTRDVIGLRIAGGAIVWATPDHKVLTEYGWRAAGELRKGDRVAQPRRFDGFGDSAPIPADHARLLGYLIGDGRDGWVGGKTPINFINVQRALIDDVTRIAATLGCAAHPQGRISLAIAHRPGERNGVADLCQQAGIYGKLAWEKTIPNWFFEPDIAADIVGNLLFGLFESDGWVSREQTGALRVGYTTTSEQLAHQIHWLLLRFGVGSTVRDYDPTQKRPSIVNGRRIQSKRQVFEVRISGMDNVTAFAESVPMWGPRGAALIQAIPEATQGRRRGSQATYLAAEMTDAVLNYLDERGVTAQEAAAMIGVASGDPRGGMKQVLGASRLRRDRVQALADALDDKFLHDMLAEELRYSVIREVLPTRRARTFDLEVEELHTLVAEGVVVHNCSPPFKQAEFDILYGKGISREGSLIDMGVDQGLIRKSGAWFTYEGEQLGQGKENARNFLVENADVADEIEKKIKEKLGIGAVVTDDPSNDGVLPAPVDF

[8] = target: Genome polyprotein (dengue virus type 2, UniProt P29990); experiment: Dengue-2 NS5 methyltransferase inhibitors, primary screen, biochemical, confirmation dose response (AID 588689); format: functional
[9] = target: T4, Replicative DNA helicase DnaB (Mycobacterium tuberculosis, UniProt P9WMR3); experiment: DnaB intein splicing inhibitors, dose response, biochemical, cell-free fluorescence (AID 449749); format: functional
T4 sequence (P9WMR3 whole entry): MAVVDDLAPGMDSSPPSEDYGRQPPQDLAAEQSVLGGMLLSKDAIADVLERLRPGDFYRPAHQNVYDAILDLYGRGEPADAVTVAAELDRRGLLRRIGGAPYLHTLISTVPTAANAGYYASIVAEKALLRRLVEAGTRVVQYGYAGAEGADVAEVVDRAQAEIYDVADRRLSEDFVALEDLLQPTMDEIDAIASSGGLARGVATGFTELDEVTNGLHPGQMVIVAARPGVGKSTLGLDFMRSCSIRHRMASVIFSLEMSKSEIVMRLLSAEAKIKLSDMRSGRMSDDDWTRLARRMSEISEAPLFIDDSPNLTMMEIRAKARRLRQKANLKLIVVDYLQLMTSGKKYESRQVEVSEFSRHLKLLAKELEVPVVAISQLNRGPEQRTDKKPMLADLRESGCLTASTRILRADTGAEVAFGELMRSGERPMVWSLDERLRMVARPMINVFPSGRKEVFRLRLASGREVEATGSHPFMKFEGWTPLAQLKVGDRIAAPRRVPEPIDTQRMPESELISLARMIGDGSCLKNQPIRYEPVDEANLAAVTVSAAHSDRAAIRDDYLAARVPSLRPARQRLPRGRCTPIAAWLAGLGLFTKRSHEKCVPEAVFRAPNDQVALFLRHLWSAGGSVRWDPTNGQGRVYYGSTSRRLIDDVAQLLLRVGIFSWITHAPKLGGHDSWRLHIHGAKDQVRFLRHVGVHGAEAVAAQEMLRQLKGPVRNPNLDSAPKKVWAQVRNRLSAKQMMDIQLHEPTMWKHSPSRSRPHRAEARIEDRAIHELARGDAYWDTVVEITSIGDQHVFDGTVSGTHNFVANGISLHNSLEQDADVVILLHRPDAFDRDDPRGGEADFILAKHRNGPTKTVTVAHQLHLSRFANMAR

[10] = target: T5, E3 ubiquitin-protein ligase XIAP (Homo sapiens, UniProt P98170); experiment: Counter Screen using XIAP-Bir3 for Chemical Antagonists of Bir1/2 domains of IAP-family anti-apoptotic proteins. [Related pubchem assays (depositor defined):AID1018, AID1449, AID1514, AID1638, AID1749, AID1750, AID488957, AID488963]
[11] = target: Glucose-6-phosphate 1-dehydrogenase (Homo sapiens, UniProt P11413); experiment: human G6PD enzyme inhibitors, dose response, selectivity assay for P. falciparum G6PD inhibitor project, biochemical, fluorescence (AID 504792); format: functional
[12] = target: T6, Hexokinase HKDC1 (Homo sapiens, UniProt Q2TB90); experiment: HKDC1 hexokinase inhibitors, dose response, biochemical, W721R variant (AID 504729); format: functional
T6 sequence (Q2TB90 whole entry): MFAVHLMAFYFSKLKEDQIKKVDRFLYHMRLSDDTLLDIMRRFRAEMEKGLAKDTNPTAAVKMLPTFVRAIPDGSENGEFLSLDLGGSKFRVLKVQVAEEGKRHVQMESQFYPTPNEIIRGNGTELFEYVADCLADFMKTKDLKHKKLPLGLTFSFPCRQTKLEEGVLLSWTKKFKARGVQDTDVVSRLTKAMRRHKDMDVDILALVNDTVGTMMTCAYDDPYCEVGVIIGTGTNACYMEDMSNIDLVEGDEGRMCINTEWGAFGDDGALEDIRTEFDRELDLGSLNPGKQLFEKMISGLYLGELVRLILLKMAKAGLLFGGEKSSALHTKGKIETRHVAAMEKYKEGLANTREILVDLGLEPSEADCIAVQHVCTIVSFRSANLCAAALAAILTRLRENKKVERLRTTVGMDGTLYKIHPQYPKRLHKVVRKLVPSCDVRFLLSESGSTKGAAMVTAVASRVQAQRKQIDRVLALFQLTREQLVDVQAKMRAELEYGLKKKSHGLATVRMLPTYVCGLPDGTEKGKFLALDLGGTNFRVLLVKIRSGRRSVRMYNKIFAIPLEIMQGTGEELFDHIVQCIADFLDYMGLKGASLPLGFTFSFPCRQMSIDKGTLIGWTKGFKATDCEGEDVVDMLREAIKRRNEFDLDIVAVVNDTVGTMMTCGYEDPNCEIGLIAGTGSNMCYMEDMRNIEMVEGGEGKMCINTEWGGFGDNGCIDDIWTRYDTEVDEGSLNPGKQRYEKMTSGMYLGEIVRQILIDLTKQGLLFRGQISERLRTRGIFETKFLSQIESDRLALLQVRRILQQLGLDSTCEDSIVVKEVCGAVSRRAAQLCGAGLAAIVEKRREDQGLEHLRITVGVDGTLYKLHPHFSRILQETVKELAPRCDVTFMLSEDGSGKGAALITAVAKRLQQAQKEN

[13] = target: T5, E3 ubiquitin-protein ligase XIAP; experiment: XIAP antagonists, biochemical, IAP family, fluorescence polarization (AID 1018); format: functional
[14] = inhibitors of Vif binding to APOBEC3G peptide, primary screen, biochemical, TR-FRET, GST-Vif 1-94, biotin-A3G peptide, dose response retest (AID 1117319); format: functional;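 further: TR-FRET signal of purified GST-Vif binding a biotinylated A3G peptide; inhibitors lower the FRET signal by blocking Vif and A3G binding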
[15] = target: Genome polyprotein (Hepatitis C virus, UniProt Q2Q167); experiment: HCV core protein dimerization inhibitors, dose response, biochemical, TR-FRET (AID 2159); set-up: species or system Hepacivirus hominis;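 further: blocks dimerization of HCV core protein measured by TR-FRET between tagged core106 pairs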
[16] = THP-1 cell cytotoxicity, dose response, cytotoxicity control for Vif-APOBEC3G degradation inhibitor project, THP-1 cells (AID 1117359); format: functional; settings: Human immunodeficiency virus 1, THP-1
[17] = cytotoxicity toward HCT116 cells – cell-based, CellTiter-Glo luminescence, IC50, dose response (AID 1117332); format: functional; settings: HCT-116
[18] = HeLa 4N DNA content increase, dose response, cell-based, IC50 (AID 1117351); format: functional
[19] = cytotoxicity toward Colo320 cells – cell-based, CellTiter-Glo luminescence, IC50, dose response (AID 1117334); format: functional; settings: COLO 320
[20] = CellTiter-Glo luminescent dose response of DLD-1 viability loss (AID 1117352); format: functional
[21] = RKO cell viability reduction, dose response, CellTiter-Glo luminescence (AID 1117322); format: functional
[22] = SNU-C1 cell viability reduction, dose response, CellTiter-Glo luminescence (AID 1117323); format: functional, cell-based
[23] = HeLa 2N DNA content increase, dose response, cell-based, IC50 (AID 1117349); format: functional
[24] = human group III sPLA2 inhibitors, dose response, biochemical, QFRET, IC50 (AID 743457);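 further: green fluorescence rise as the enzyme cleaves BODIPY PC-A2 in liposomes; potency for inhibition of the enzyme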
[25] = cytotoxicity toward HT-29 cells – cell-based, CellTiter-Glo luminescence, IC50, dose response (AID 1117330); format: functional
[26] = Concentration-dependent survival of SW480 colon cancer line, luminescence detection with CellTiter-Glo, half-maximal inhibitory concentration (AID 1117338); format: functional

T5 sequence (P98170 whole entry): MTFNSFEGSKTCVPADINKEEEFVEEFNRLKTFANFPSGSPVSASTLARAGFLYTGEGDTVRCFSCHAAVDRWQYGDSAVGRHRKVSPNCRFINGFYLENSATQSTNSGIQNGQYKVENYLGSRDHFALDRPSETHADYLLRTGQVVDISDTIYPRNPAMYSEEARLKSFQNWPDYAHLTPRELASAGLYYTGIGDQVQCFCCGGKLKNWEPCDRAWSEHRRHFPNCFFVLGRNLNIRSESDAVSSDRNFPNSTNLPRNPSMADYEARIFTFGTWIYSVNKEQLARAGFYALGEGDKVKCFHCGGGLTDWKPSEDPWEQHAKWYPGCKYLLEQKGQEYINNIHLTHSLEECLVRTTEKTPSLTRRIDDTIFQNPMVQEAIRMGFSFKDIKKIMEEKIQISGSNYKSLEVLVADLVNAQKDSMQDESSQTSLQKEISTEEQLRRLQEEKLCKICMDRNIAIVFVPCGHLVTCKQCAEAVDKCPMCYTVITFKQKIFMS
Sequence of Eukaryotic translation initiation factor 4E (P63073 whole entry): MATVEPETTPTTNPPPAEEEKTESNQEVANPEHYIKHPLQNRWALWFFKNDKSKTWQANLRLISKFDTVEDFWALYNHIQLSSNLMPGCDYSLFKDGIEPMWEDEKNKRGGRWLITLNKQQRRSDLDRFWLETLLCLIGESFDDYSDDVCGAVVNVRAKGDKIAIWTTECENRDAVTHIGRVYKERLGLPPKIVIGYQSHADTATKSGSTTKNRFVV
Sequence of DNA dC->dU-editing enzyme APOBEC-3G (Q9HC16 whole entry): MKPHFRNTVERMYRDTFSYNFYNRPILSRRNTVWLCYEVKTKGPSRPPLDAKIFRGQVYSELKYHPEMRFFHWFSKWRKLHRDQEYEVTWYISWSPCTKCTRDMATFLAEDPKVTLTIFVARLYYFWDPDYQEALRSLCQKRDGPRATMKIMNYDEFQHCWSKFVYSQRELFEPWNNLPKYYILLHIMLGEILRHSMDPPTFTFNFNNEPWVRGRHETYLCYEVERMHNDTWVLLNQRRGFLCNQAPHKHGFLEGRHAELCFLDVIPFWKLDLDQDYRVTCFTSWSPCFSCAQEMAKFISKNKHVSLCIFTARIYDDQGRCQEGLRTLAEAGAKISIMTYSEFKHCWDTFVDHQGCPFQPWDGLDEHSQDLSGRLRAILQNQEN
Sequence of Genome polyprotein (dengue virus type 2, UniProt P29990) (P29990 2492-3391 limits assumed): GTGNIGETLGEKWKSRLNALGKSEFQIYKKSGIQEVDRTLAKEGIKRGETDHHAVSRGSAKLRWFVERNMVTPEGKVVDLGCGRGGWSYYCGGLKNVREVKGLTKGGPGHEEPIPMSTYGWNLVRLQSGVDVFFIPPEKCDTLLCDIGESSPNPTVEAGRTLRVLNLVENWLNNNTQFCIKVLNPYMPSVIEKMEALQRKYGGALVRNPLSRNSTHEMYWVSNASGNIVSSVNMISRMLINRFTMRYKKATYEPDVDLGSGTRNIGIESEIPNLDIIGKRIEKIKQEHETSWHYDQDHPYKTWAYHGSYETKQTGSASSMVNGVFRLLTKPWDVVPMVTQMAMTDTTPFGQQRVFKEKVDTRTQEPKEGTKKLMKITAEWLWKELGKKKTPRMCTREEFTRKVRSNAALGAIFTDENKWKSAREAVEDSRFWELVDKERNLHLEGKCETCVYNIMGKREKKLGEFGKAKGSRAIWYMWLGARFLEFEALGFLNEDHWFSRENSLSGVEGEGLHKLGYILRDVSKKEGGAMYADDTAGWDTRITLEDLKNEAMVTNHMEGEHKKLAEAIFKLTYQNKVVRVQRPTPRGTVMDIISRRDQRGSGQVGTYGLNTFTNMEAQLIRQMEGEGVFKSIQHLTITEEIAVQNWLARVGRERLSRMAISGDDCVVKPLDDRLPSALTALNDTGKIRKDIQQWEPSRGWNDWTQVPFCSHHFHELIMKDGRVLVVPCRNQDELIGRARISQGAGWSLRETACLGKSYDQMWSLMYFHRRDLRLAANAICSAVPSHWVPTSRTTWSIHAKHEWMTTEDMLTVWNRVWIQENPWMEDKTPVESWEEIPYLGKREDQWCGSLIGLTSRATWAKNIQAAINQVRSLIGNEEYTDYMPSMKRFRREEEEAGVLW
Sequence of Protein Tat (P04608 whole entry): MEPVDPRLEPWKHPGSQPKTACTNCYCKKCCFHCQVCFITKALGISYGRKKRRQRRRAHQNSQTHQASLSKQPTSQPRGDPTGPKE
Sequence of Glucose-6-phosphate 1-dehydrogenase (P11413 whole entry): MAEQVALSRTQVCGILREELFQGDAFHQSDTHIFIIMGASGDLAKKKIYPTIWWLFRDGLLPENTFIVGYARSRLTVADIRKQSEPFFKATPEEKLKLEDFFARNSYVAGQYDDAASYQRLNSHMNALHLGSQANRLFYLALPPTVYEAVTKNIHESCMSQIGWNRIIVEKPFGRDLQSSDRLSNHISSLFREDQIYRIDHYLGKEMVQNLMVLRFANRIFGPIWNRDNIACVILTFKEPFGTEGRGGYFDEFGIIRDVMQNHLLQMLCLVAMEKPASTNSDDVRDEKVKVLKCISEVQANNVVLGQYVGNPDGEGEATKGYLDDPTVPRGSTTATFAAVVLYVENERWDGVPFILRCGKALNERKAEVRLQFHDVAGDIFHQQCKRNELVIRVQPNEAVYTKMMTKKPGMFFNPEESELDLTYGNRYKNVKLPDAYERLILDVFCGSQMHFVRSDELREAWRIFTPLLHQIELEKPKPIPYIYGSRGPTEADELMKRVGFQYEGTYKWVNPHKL
Sequence of Genome polyprotein (Hepatitis C virus, UniProt Q2Q167) (Q2Q167 whole entry): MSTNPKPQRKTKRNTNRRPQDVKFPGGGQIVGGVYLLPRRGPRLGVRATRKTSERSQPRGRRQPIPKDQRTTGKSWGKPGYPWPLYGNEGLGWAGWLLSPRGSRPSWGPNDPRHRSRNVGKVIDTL

Cc1ccc2oc(=O)c(/C=C(\O)c3ccco3)nc2c1
IC50 [1]: 5.13 µM (active) | EC50 [2]: 4.74 µM (active)

Cc1cccc(N(O)C(=O)Nc2cccc(Cl)c2)c1
IC50 [1]: 5.44 µM (active)

O=C(/C=C/c1ccccc1)Nc1cccc(S(=O)(=O)Nc2ccccc2F)c1
IC50 [3]: 20 µM (active) | IC50 [4]: 31.9 µM (active)

Oc1nc2ccccc2n2c(-c3ccccc3)nnc12
IC50 [5]: 34.4 µM (inactive) | IC50 [6]: > 100 µM (active) | EC50 [7]: 12.8 µM (active) | IC50 [8]: 8.26 µM (active) | AC50 [9]: > 380 µM (inactive) | IC50 [10]: > 100 µM (inactive) | IC50 [11]: 41.6 µM (inactive) | IC50 [12]: 7.52 µM (active) | IC50 [13]: > 100 µM (not active)

Cc1ccc(CCNC(=O)C2CCCN(S(=O)(=O)c3c(C)noc3/C=C/N(C)C)C2)cc1 (stereo not drawn)
IC50 [14]: > 100 µM (active)

CCCCn1c(SCC(=O)Nc2cc(C)on2)nc2ccccc2c1=O
IC50 [15]: > 49.8 µM (not active)

N#Cc1ccccc1NC(=O)CNc1ccc(Cl)c(C(F)(F)F)c1
IC50 [14]: > 100 µM (active)

CCOC(=O)C1CCN(C(=O)c2ccc3snnc3c2)CC1
CC50 [16]: > 40 µM (active)

Cc1ccc2c(c1)c1c3n2CCNC3CCC1 (stereo not drawn)
IC50 [17]: > 20 µM (inactive) | IC50 [18]: > 10 µM (inactive) | IC50 [19]: > 20 µM (inactive) | IC50 [20]: > 20 µM (inactive) | IC50 [21]: > 20 µM (inactive) | IC50 [22]: 2.48 µM (active) | IC50 [23]: > 10 µM (inactive) | IC50 [24]: > 122 µM (inactive) | IC50 [25]: > 20 µM (inactive) | IC50 [26]: > 20 µM (inactive)
